Patent US7056506B2, “Methods for detecting and inhibiting angiogenesis” (The Regents of the University of California, priority 1998, dated 2006)
“Also recorded” adds a separate entry of the source.

B1: vitronectin: vitronectin, extracellular matrix protein applied to CAM's (protein)
chain: DQESCKGRCTEGFNVDKKCQCDELCSYYQSCCTDYTAECKPQVTRGDVFTMPEDEYTVYDDGEEKNNATVHEQVGGPSLTSDLQAQSKGNPEQTPVLKPEEEAPAPEVGASKPEGIDSRPETLHPGRPQPPAEEELCSGKPFDAFTDLKNGSLFAFRGQYCYELDEKAVRPGYPKLIRDVWGIEGPIDAAFTRINCQGKTYLFKGSQYWRFEDGVLDPDYPRNISDGFDGIPDNVDAALALPAHSYSGRERVYFFKGKQYWEYQFQHQPSQEECEGSSLSAVFEHFAMMQRDSWEDIFELLFWGRTSAGTRQPQFISRDWHGVPGQVDAAMAGRIYISGMAPRPSLAKKQRFRHRNRKGYRSQRGHSRGRNQNSRRPSRATWLSLFSSEESNLGANNYDDYRMDWLVPATCEPIQSVFFFSGDKYYRVNLRTRRVDTVDPPYPRSIAQYWLGCPAPGHL

How the values were obtained:
[1] = biological target: T1, integrin αVβ3 (Homo sapiens, UniProt P05106+P06756); experiment: Integrin receptor ligand binding assay (biotinylated vitronectin); settings: vitronectin as ligand
T1 construct: Integrin αVβ3 and α5β1 receptor purified from human placenta were obtained from Chemicon International; purchased Chemicon International; host or cells: purified from human placenta (natural tissue)
T1 sequence (P06756 31-889 limits assumed): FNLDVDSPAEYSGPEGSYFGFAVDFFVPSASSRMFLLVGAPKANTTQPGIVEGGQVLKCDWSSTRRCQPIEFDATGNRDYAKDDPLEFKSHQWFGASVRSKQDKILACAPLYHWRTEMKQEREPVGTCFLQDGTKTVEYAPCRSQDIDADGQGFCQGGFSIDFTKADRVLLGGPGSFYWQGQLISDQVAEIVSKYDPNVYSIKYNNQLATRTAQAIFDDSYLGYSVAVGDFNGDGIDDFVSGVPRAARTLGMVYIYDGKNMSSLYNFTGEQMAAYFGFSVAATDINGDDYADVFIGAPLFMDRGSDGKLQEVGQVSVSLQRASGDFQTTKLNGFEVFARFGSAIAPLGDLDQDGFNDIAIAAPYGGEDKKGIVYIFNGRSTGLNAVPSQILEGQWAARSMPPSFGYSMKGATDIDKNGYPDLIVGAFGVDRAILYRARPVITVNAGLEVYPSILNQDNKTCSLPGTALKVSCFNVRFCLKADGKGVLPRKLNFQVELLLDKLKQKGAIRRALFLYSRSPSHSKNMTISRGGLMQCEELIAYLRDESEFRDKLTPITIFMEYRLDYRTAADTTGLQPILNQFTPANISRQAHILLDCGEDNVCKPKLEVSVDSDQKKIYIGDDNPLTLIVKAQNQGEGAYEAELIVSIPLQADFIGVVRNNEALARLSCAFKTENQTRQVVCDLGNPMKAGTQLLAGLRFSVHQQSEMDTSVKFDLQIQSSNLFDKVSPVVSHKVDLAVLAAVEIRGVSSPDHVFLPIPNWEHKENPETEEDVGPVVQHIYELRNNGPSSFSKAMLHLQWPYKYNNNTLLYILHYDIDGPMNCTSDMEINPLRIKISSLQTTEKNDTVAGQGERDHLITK
T1 sequence (P06756 891-1048 partner limits assumed): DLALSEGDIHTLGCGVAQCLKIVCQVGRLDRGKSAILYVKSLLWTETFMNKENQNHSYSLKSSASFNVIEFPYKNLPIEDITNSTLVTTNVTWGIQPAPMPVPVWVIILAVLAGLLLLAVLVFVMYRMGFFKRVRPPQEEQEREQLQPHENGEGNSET
T1 sequence (P05106 27-788): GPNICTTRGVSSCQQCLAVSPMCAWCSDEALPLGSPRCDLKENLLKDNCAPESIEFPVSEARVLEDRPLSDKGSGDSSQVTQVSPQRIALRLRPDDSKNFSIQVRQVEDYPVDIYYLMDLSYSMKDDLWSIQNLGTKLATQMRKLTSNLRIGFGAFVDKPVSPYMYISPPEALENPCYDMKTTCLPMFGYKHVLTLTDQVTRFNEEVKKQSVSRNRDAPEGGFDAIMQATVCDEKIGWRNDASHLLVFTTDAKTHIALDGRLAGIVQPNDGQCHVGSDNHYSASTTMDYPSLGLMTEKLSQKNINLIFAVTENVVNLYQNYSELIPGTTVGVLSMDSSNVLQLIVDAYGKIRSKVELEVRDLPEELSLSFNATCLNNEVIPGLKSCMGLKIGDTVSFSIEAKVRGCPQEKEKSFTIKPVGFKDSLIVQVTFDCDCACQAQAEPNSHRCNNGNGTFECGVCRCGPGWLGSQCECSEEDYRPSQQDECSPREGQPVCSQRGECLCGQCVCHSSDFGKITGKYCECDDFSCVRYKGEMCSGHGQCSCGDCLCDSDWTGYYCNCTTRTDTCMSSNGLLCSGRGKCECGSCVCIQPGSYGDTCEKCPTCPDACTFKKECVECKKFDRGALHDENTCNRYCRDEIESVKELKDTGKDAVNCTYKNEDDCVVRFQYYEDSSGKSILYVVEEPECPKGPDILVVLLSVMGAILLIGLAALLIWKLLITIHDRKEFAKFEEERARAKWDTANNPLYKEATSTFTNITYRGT
Description: (§1) Integrin αVβ3 and α5β1 receptor purified from human placenta were obtained from Chemicon International. Platelet integrin αIIbβ3 was purified from platelets according to established procedures. Receptors were coated (100 μl/well) on Costar (3590) high capacity binding plates overnight at 4° C. Coating solution was discarded and plates were washed once with blocking/binding (B/B) buffer (50 mM Tris HCl, pH 7.4, 100 mM NaCl, 2 mM CaCl, 1 mM MgCl2, 1 mM MnCl2 and 1% BSA).
(§2) One hundred ten microliters of B/B buffer was applied for 60 min at RT. Thirty μl of biotinylated extracellular matrix protein ligand (fibronectin for integrin α5β1, vitronectin for integrin αVβ3 and fibrinogen for integrin αIIbβ3) plus 50 μl of either SJ749 in B/B buffer or B/B buffer alone were added to each well, and incubated for 25 min at RT. Plates were washed twice with B/B buffer and incubated 1 hr at RT, with anti-biotin alkaline phosphatase (100 μl/well) in B/B buffer. Finally, plates were washed twice with B/B followed by the addition of 100 μl of phosphatase substrate (1.5 mg/ml). Reaction was stopped by adding 2N NaOH (25 μl/well), and the developed color was read at 405 nm.

[2] = test system: chick embryo fibroblasts (CEF's); experiment: Cell adhesion assay, adhesion to fibronectin; type: cell-based
Description: (§3) HT29 integrin α5β1^+ cells, integrin α5β1^− colon carcinoma cells (Varner et al., Mol. Biol. Cell 6:725–740 (1995)), and chick embryo fibroblasts (CEF's) were maintained in DMEM high glucose supplemented with 10% fetal bovine serum (FBS) and gentamycin. Human umbilical vein endothelial cells (HUVEC's) were maintained in M199 medium containing sodium bicarbonate, HEPES, heparin, endothelial cell growth supplement, 20% FBS and gentamycin. Culture media and reagents were from Irvine Scientific (Irvine, Calif.).
(§4) The wells of 48 well culture dishes (Costar, Inc.) were coated with 1 μg/ml vitronectin, 2 μg/ml fibronectin (chick embryo fibroblasts and HUVEC's) or 10 μg/ml fibronectin (HT29-α5^+ cells) for 1 hr at 37° C., then blocked with 2% heat denatured BSA in PBS for 1 hr. Fifty thousand cells in 250 μl of adhesion buffer were added to triplicate wells containing 250 μl of a solution of 50 μg/ml of an anti-α5β1 function blocking antibody (NKI-SAM-1, JBS5 or IIA1), 50 μg/ml of an anti-α5β1 non-function blocking antibody (HA5 or VC5; Pharmingen, Inc.; San Diego Calif.), 10 μM cyclic peptides (Koivunen et al., J. Biol. Chem. 268:20205–20210 (1993); Koivunen et al., J. Cell Biol. 124:373380 (1994)), 0–10 μM SJ749 ((S)-2-{(2,4,6-trimethylphenyl)sulfonyl}amino-3{7-benzyloxycarbonyl-8-(2-pyridinylaminomethyl)-1-oxa-2,7-diazaspiro-{4,4}-non-2-en-3-yl}carbonylamino}propionic acid)), 50 μg/ml of LM609, an anti-αVβ3 function blocking antibody, 50 μg/ml P4C10, an anti-β1 function blocking antibody, 50 μg/ml of an anti-fibronectin cell binding domain monoclonal antibody or 50 μg/ml of an anti-fibronectin N-terminus monoclonal antibody in adhesion buffer (HEPES buffered Hanks balanced salt solution, HBSS, containing 1% BSA, 2 mM MgCl2, 2 mM CaCl2 and 0.2 mM MnCl2).
(§5) Cells were allowed to adhere to dishes for 20 min at 37° C. Nonadherent cells were removed by washing each well four times with 500 μl of warm adhesion buffer. Adherent cells were then fixed for 15 min with 3.7% paraformaldehyde in PBS and stained with a 2% crystal violet solution. After extensive water washing to remove excess crystal violet, plates were dried overnight. Crystal violet was extracted by incubation for 15 min in 10% acetic acid and absorbance at 562 nm determined as an indicator of number of cells bound. Each experiment was performed in triplicate, with triplicate samples per condition.

[3] = test system: Human umbilical vein endothelial cells (HUVEC's); experiment: Cell adhesion assay, adhesion to fibronectin; type: cell-based
Description: as §3, §4, §5

[4] = test system: VEGF-induced angiogenesis on the chick CAM; experiment: In ovo chick CAM angiogenesis assay, VEGF stimulated; type: in vivo; settings: for effect on VEGF angiogenesis: VEGF stimulated CAM; for effect of applied matrix protein on the angiogenic effect of VEGF: matrix protein applied to VEGF stimulated CAM's
Description: (§6) Ten day old embryonated chicken eggs (McIntyre Poultry; Ramona Calif.) were candled to illuminate blood vessels under the shell and an area with a minimum of small blood vessels is identified. The CAM was dropped away from the eggshell in this area by grinding a small hole in the mineralized shell and applying pressure to the underlying inner shell membrane. This procedure caused an air pocket to shift from the wide end of the egg to the identified area and forcing a circular region of the CAM approximately 2 cm in diameter to drop away from the shell. A window was cut in the egg shell and a cortisone acetate pre-treated filter disc 5 mm in diameter that had been saturated in 1 μg/ml bFGF, VEGF, TNFα, IL-8 (Genzyme, Inc.; Cambridge Mass.) or saline was placed on the CAM. The window in the shell was sealed with adhesive tape and the egg was incubated for four days.
(§7) Anti-fibronectin antibodies (25 μg in 25 μl) also were applied topically to the CAM.
(§8) Fibronectin, vitronectin and fibronectin fragments (59 pmol in a final volume of 25 μl) were applied to stimulated or unstimulated CAM's. Peptide or small molecule antagonists of α5β1 (at a final serum concentration of 0–25 μM) also were injected intravenously into the chick circulation 24 hr later. CAM's were harvested on the fourth day of stimulation. Blood vessel branch points in the 5 mm filter disk area were counted at 30× magnification in a blinded fashion as a size-independent quantitative indicator of vascular sprouting in response to growth factors. Angiogenesis is characterized by the sprouting of new vessels in response to growth factors. Thus, counting of blood vessel branch points is a useful quantitative means of obtaining an angiogenic index (Brooks et al., In “Methods in Molecular Biology” (Humana Press 1999). At least ten embryos were used per treatment group. Each experiment was performed a minimum of three times.
(§9) Data was evaluated in terms of average number of blood vessel branch points per treatment group +/−standard error of measurement . Statistical analyses were performed using Student's t-test. Representative CAMS from each treatment group were photographed at 10X magnification. In some cases, CAM tissue excised from the egg was frozen in OCT (Baxter; McGraw Park Ill.) in liquid nitrogen, cut into 5 μm sections, air dried and processed for immunohistochemical analysis as described in Example I, except without fixation.

[5] = biological target: T2, integrin α5β1 (Homo sapiens, UniProt P05556+P08648); experiment: Integrin receptor ligand binding assay (biotinylated fibronectin); settings: fibronectin as ligand
T2 construct: Integrin αVβ3 and α5β1 receptor purified from human placenta were obtained from Chemicon International; purchased Chemicon International; host or cells: purified from human placenta (natural tissue)
T2 sequence (P08648 42-894 limits assumed): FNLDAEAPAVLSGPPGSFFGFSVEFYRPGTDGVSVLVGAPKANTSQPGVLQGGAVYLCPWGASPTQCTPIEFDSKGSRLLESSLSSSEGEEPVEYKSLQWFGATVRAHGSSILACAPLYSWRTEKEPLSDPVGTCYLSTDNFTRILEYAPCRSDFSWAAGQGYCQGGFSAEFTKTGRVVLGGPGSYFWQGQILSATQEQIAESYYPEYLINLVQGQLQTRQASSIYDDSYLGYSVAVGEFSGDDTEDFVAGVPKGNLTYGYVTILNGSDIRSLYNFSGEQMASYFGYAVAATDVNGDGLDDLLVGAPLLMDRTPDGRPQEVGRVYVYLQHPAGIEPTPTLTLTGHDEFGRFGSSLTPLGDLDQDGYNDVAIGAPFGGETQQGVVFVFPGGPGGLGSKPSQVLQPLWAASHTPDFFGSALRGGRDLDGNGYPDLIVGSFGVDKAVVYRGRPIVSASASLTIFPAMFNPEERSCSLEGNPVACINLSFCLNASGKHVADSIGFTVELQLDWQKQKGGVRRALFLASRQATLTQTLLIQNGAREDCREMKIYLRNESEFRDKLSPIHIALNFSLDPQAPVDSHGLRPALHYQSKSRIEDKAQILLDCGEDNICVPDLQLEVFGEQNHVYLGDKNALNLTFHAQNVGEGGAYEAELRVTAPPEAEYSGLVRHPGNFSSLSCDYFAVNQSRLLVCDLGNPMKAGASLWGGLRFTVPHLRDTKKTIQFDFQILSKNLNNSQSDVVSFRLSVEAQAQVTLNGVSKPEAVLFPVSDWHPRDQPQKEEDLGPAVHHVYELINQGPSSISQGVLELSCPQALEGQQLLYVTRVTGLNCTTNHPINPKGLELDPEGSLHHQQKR
T2 sequence (P08648 895-1049 partner limits assumed): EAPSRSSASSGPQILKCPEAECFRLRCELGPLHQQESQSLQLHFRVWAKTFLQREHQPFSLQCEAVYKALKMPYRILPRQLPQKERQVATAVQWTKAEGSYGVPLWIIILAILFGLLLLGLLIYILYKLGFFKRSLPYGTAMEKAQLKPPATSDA
T2 sequence (P05556 21-798): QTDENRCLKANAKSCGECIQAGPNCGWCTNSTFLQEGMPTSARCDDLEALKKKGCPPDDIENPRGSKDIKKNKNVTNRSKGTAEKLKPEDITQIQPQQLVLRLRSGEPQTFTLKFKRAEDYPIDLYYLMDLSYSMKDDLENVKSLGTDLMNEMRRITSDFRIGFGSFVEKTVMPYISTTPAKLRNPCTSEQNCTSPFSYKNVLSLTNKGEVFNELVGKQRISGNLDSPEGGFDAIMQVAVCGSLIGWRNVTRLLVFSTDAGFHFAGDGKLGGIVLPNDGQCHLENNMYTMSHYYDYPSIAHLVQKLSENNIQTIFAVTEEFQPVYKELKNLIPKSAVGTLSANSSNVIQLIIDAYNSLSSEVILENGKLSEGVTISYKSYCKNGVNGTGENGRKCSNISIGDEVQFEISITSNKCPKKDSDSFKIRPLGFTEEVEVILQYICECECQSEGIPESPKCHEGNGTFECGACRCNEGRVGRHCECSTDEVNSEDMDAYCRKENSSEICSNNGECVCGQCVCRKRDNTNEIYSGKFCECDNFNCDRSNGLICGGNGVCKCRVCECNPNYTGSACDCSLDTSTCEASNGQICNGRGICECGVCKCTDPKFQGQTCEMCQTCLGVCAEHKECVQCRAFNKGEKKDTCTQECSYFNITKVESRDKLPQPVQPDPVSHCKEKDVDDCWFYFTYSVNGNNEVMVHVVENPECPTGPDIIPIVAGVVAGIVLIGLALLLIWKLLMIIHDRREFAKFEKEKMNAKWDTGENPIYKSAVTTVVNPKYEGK
Description: as §1, §2

[6] = test system: growth factor-induced angiogenesis in chick embryos; experiment: Chick CAM angiogenesis assay, systemic administration, growth factor not specified; type: in vivo; settings: chick embryo, read-out: amount inhibiting angiogenesis by 50% (converted)
Description: (§10) Ten day old embryonated chicken eggs (McIntyre Poultry; Ramona Calif.) were candled to illuminate blood vessels under the shell and an area with a minimum of small blood vessels is identified. The CAM was dropped away from the eggshell in this area by grinding a small hole in the mineralized shell and applying pressure to the underlying inner shell membrane. This procedure caused an air pocket to shift from the wide end of the egg to the identified area and forcing a circular region of the CAM approximately 2 cm in diameter to drop away from the shell. […]
(§11) Fibronectin, vitronectin and fibronectin fragments (59 pmol in a final volume of 25 μl) were applied to stimulated or unstimulated CAM's. […] Blood vessel branch points in the 5 mm filter disk area were counted at 30× magnification in a blinded fashion as a size-independent quantitative indicator of vascular sprouting in response to growth factors. […] Thus, counting of blood vessel branch points is a useful quantitative means of obtaining an angiogenic index (Brooks et al., In “Methods in Molecular Biology” (Humana Press 1999). At least ten embryos were used per treatment group. Each experiment was performed a minimum of three times.
(§12) Data was evaluated in terms of average number of blood vessel branch points per treatment group +/−standard error of measurement . […]

[7] = test system: HT29 colon carcinoma cells lacking α5β1 expression; experiment: Chick CAM tumor assay, HT29; type: in vivo; settings: HT29 tumors on CAM
Description: The chick CAM tumor assay was performed by placing ten million tumor cells on the surface of a CAM, and culturing the cells for one week. The resulting tumors were excised and cut into 50 mg fragments. […] Forty-eight hours later, CAM's were excised from the egg and the number of blood vessels entering the tumors were counted (as vessel branch points).
Data was presented as mean blood vessel number per treatment group (+/− standard error of measurement). Each treatment group incorporated at least ten tumors per experiment. Representative tumors were photographed at 10× magnification. Tumors were excised from the egg and tumor weights were determined for each tumor Data was presented as mean tumor weight per treatment group (+/− standard error of measurement). Statistical analyses were performed using Student's t-test.
HT29 colon carcinoma cells lacking α5β1 expression were grown on the CAM's of 10-day old embryos. These tumor cells secrete several angiogenic growth factors, including VEGF, TGFα, TGFβ, TNFα, and IL-8 (Anzano et al., Cancer Res. 49:2898–2904 (1989); Varner et. al., supra, 1995; Ellis et al., J. Biol. Chem. 273:1052–1057 (1998)). Integrin α5β1 negative tumor cells were used to distinguish the potential anti-tumor effects from anti-vasculature effects of integrin α5β1 antagonists.

[8] = test system: bFGF-induced angiogenesis on the chick CAM; experiment: In ovo chick CAM angiogenesis assay, bFGF stimulated; type: in vivo
Description: as §6, §7, §8, §9

[9] = test system: α5^+ HT29 colon carcinoma cells, CEF's and HUVEC's; experiment: Cell adhesion assay, attachment to vitronectin; type: cell-based; settings: vitronectin coating
Description: as §3
The wells of 48 well culture dishes (Costar, Inc.) were coated with 1 μg/ml vitronectin, 2 μg/ml fibronectin (chick embryo fibroblasts and HUVEC's) or 10 μg/ml fibronectin (HT29-α5^+ cells) for 1 hr at 37° C., then blocked with 2% heat denatured BSA in PBS for 1 hr. […]
(§13) Cells were allowed to adhere to dishes for 20 min at 37° C. […] Crystal violet was extracted by incubation for 15 min in 10% acetic acid and absorbance at 562 nm determined as an indicator of number of cells bound. […]

[10] = test system: HUVEC's; experiment: Cell migration assay on fibronectin; type: cell-based, human
Description: The lower side of 8 μm pore transwell inserts (Costar, Inc.) were coated with 2 μg/ml of fibronectin, collagen (Collaborative Biomedical Products; Bedford Mass.) or no protein for 1 hr and were blocked with 2% BSA in PBS for 1 hr. The inserts then were placed into 24 well culture dishes containing 500 μl migration buffer in the lower chamber. Twenty-five thousand HUVEC's in 50 μl of migration buffer (HEPES buffered M199 medium containing 1% BSA, 2 mM MgCl2, 2 mM CaCl2 and 0.2 mM MnCl2) were added to the upper chamber of duplicate inserts containing 50 μl of a solution of 50 μg/ml of anti-α5β1 function blocking antibody (NKI-SAM-1, JBS5 or IIA1), 50 μg/ml of anti-α5β1 non-function blocking antibody (HA5 or VC5), or 50 μg/ml of LM609 (an anti-αVβ3 function blocking antibody) in migration buffer, or migration buffer alone.
Cells were allowed to migrate from the upper to the lower chamber for 4 hr at 37° C. Nonmigratory cells were removed from the upper surface by wiping the upper side with an absorbant tip, and cells that had migrated to the lower side of the transwell insert were fixed for 15 min with 3.7% paraformaldehyde in PBS, then stained with a 2% crystal violet solution. After extensive water washing to remove excess crystal violet, the number of cells that had migrated were counted in three representative high power (200×) fields per insert. […]

[11] = test system: α5^+ HT29 cells; experiment: Cell adhesion assay, adhesion to fibronectin; type: cell-based, human
Description: as §3, §4
as §13, with “C. Nonadherent cells were removed by washing each well four times with 500 μl of warm adhesion buffer.” for “C.”

[12] = test system: blood vessels of unstimulated CAM's; experiment: In ovo chick CAM angiogenesis assay, unstimulated CAM's; type: in vivo; settings: absence of growth factor
Description: as §10, §11, §12

[13] = matrix protein applied to bFGF stimulated CAM's

Molecule	effect on ligand binding to αVβ3 and other integrins [1]	effect on adhesion to fibronectin [2]	effect on adhesion to fibronectin [3]	effect on VEGF angiogenesis [4]	effect on ligand binding to α5β1 [5]	IC50 [6] [µM]	effect on tumor size [7]	effect on bFGF-induced angiogenesis ([8]; bFGF stimulated CAM)	effect on cell attachment to vitronectin [9]	effect on endothelial cell migration on fibronectin [10]	effect on adhesion to fibronectin [11]	effect of applied matrix protein on the angiogenic effect of VEGF [4]	effect on blood vessels / angiogenesis of unstimulated CAM's [12]	enhancement of growth factor stimulated angiogenesis [8, 13]	tumors smaller than control treated tumors [7] [%]	inhibition of bFGF-induced angiogenesis (blood vessel branch points) ([8]; bFGF stimulated CAM)	effect of applied matrix protein on bFGF stimulated angiogenesis [8, 13]
Cc1cc(C)c(S(=O)(=O)N[C@@H](CNC(=O)C2=NOC3(C2)CC(CNc2ccccn2)N(C(=O)OCc2ccccc2)C3)C(=O)O)c(C)c1 (some centres unmarked) [SJ749]	substantially less effective	blocked	blocked	did not block	selectively inhibited; also recorded: interfered	0.0075	induced tumor regression	blocked; also recorded: dose dependent inhibitory effect; also recorded: reduced or inhibited angiogenesis in a dose dependent manner	ineffective	highly effective	inhibitory effect	–	–	–	–	–	–
fibronectin: intact human fibronectin	–	–	–	–	–	–	–	–	–	–	–	did not potentiate	neither fibronectin nor vitronectin promoted angiogenesis	at least 46+/−11%	–	–	–
CRRETAWAC	–	significantly inhibited	significantly inhibited	failed to block	–	0.06	induced tumor regression	–	–	interfered	significantly inhibited	–	–	–	31	90+/−6%	–
CATAERWRC ["scrambled" control peptide]	–	little effect	little effect	–	–	–	continued to increase in size	did not inhibit	little effect	–	little effect	–	–	–	–	–	–
B1	–	–	–	–	–	–	–	–	–	–	–	did not potentiate	neither fibronectin nor vitronectin promoted angiogenesis	–	–	–	no effect
